Source: patent US20240316038A1, “APOL1 INHIBITORS AND METHODS OF USE” (Maze Therapeutics, Inc., priority 2021, published 2024)

Legend:
APOL1 G2 [1] = target: T1, APOL1 G2 (Homo sapiens, UniProt O14791, DEL388-389); assay: Rescue of HEK293 cell death caused by overexpression of APOL1 (CellTiter-Glo luminescence), HEK293/T-REx APOL1 G2/clone #2; format: cell-based; conditions: reversal of cell death caused by overexpression of APOL1; geometric mean of at least 2 assay runs, † = single assay run (technical duplicate)
T1 construct: expressed in transfected cells; host or cells: HEK293 T-REx clonal lines: HEK T-REx/GCaMP6f/APOL1 G2 K6.3 in A1, HEK293/T-REx APOL1 G2/clone #2 in A2
T1 sequence (O14791 with tags, fused parts or gaps DEL388-389): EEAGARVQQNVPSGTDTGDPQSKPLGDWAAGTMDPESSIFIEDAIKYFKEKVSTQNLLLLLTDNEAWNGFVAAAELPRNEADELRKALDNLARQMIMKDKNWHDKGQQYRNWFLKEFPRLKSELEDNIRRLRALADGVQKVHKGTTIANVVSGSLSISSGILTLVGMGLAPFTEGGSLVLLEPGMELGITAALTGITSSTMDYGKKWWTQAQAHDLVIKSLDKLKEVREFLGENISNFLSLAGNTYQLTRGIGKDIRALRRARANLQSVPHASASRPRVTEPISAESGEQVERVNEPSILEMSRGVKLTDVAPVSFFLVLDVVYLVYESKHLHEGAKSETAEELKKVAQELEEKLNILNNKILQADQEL
Procedure, shortened: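 Rescue EC50s come from four-parameter logistic fits, geometric mean of at least 2 runs on separate days, each in duplicate. Readout: CellTiter-Glo luminescence after 17 h at 37 °C of 5,000 HEK293/T-REx APOL1 G2 clone #2 cells/well, with 6 ng/mL doxycycline to induce APOL1 and 3-fold serial compound dilutions in 0.5% DMSO.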

APOL1 G2 [2] = target: T1, APOL1 G2; assay: APOL1 calcium transport inhibition assay (GCaMP6f calcium influx, FLIPR) in HEK T-REx/GCaMP6f/APOL1 G2 K6.3 cells; format: cell-based; conditions: inhibition of APOL1-mediated calcium influx; geometric mean of at least 2 assay runs, † = single assay run (technical duplicate)
Procedure, shortened: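 HEK293 cells stably expressing GCaMP6f, APOL1 G2 induced 6 h with doxycycline (20 ng/mL added), then washed into Ca2+-free Tyrode's buffer pH 7.4. Compounds (8-point dose response) preincubated 10 min at room temperature, then Ca2+ injected to 5 mM final and influx read on FLIPR. AC50 reported as geometric mean of runs.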

| SMILES | EC50 (APOL1 G2 [1]) | AC50 (APOL1 G2 [2]) |
| --- | --- | --- |
| CC1CC(COc2ccc(S(C)(=O)=O)cc2)CN1CCc1cccc(C#N)c1 (single isomer, unassigned) [Compound 136, rac-trans or cis-3-{2-[4-[(4-methanesulfon-ylphenoxy)meth-yl]-2-methyl-pyrrolidin-1-yl]-ethyl}benzo-nitrile] | 110 nM | 207 nM |
| CC1CC(COc2ccc(S(C)(=O)=O)cc2)CN1CCc1cccc(C#N)c1 (single isomer, unassigned) [Compound 137, 3-{2-[(2S,4R or 2R,4S or 2R,4R or 2S,4S)-4-[(4-methanesulfon-ylphenoxy)meth-yl]-2-methyl-pyrrolidin-1-yl]-ethyl}benzo-nitrile] | 4620 nM | > 10000 nM |
| CC1CC(COc2ccc(S(C)(=O)=O)cc2)CN1CCc1cccc(C#N)c1 (single isomer, unassigned) [Compound 138, 3-{2-[(2R,4S or 2S,4R or 2R,4R or 2S,4S)-4-[(4-methanesulfon-ylphenoxy)meth-yl]-2-methyl-pyrrolidin-1-yl]-ethyl}benzo-nitrile] | 1970 nM | 2500 nM |
| CC1CC(COc2ccc(S(C)(=O)=O)cc2)CN1CCc1cccc(C#N)c1 (single isomer, unassigned) [Compound 139, 3-{2-[(2S,4R or 2R,4S or 2S,4S or 2R,4R)-4-[(4-methanesulfon-ylphenoxy)meth-yl]-2-methyl-pyrrolidin-1-yl]-ethyl}benzo-nitrile] | 3230 nM | > 10000 nM |
| CC1CC(COc2ccc(S(C)(=O)=O)cc2)CN1CCc1cccc(C#N)c1 (single isomer, unassigned) [Compound 140, 3-{2-[(2S,4R or 2R,4S or 2R,4R or 2S,4S)-4-[(4-methanesulfon-ylphenoxy)meth-yl]-2-methyl-pyrrolidin-1-yl]-ethyl}benzo-nitrile] | 45.9 nM | 107 nM |
| CC(CN1C[C@@H](COc2ccc(S(C)(=O)=O)cc2)C[C@H]1C)c1cc(Cl)cc(C#N)c1 (single isomer, unassigned) [Compound 142, 3-chloro-5-[(2R or 2S)-1-[(2R, 4S)-4-[(4-meth-anesulfonyl-phenoxy)meth-yl]-2-methyl-pyrrolidin-1-yl]-propan-2-yl]-benzonitrile] | 131 nM | 1230 nM |
| CC(CN1C[C@@H](COc2ccc(S(C)(=O)=O)cc2)C[C@H]1C)c1cc(Cl)cc(C#N)c1 (single isomer, unassigned) [Compound 143, 3-chloro-5-[(2S or 2R)-1-[(2R, 4S)-4-[(4-meth-anesulfonyl-phenoxy)meth-yl]-2-methyl-pyrrolidin-1-yl]-propan-2-yl]-benzonitrile] | 349 nM | 3160 nM |
| CC(CN1C[C@@H](COc2ccc(S(C)(=O)=O)cc2)[C@H](C)C1)c1cc(Cl)cc(C#N)c1 (single isomer, unassigned) [Compound 147, 3-chloro-5-[(2R or 2S)-1-[(3S, 4S)-3-[(4-meth-anesulfonylphen-oxy)methyl]-4-methylpyrroli-din-1-yl]propan-2-yl]benzonitrile] | 618 nM | 1110 nM |
| CC(CN1C[C@@H](COc2ccc(S(C)(=O)=O)cc2)[C@H](C)C1)c1cc(Cl)cc(C#N)c1 (single isomer, unassigned) [Compound 148, 3-chloro-5-[(2S or 2R)-1-[(3S, 4S)-3-[(4-meth-anesulfonylphen-oxy)methyl]-4-methylpyrroli-din-1-yl]propan-2-yl]benzonitrile] | 80.8 nM | 615 nM |
| C[C@@H]1CN(CCc2cccc(Cl)c2)C[C@@H]1COc1ccc(S(C)(=O)=O)cc1 (single isomer, unassigned) [Compound 151, (3R,4S or 3S, 4R)-1-[2-(3-chlorophenyl)-ethyl]-3-[(4-methanesulfon-ylphenoxy)meth-yl]-4-methyl-pyrrolidine] | 1340 nM | 310 nM |
| C[C@H]1CN(CCc2cccc(Cl)c2)C[C@H]1COc1ccc(S(C)(=O)=O)cc1 (single isomer, unassigned) [Compound 152, (3S,4R or 3R, 4S)-1-[2-(3-chlorophenyl)-ethyl]-3-[(4-methanesulfon-ylphenoxy)meth-yl]-4-methyl-pyrrolidine] | 4720 nM | 1990 nM |
| C[C@H]1CN(CCc2cccc(Cl)c2)C[C@@H]1COc1ccc(S(C)(=O)=O)cc1 (single isomer, unassigned) [Compound 154, (3R,4R or 3S, 4S)-1-[2-(3-chlorophenyl)-ethyl]-3-[(4-methanesulfon-ylphenoxy)meth-yl]-4-methyl-pyrrolidine] | 167 nM | 98 nM |
| C[C@@H]1CN(CCc2cccc(Cl)c2)C[C@H]1COc1ccc(S(C)(=O)=O)cc1 (single isomer, unassigned) [Compound 155, (35,4S or 3R, 4R)-1-[2-(3-chlorophenyl)-ethyl]-3-[(4-methanesulfon-ylphenoxy)meth-yl]-4-methyl-pyrrolidine] | 2490 nM | 1980 nM |
| CN=S(C)(=O)c1ccc(OC[C@H]2C[C@@H](C)N(CCc3cccc(C#N)c3)C2)cc1 (single isomer, unassigned) [Compound 158, 3-{2-[(2R,4S)-2-methyl-4-({4-[(R or S)methyl(methyli-mino)oxo-λ^6-sulfanyl]phenoxy}methyl)pyrrolidin-1-yl]ethyl}benzonitrile] | 39 nM | 352 nM |
| CN=S(C)(=O)c1ccc(OC[C@H]2C[C@@H](C)N(CCc3cccc(C#N)c3)C2)cc1 (single isomer, unassigned) [Compound 159, 3-{2-[(2R,4S)-2-methyl-4-({4-[(S or R)methyl(methyli-mino)oxo-λ^6-sulfanyl]phenoxy}methyl)pyrrolidin-1-yl]ethyl}benzonitrile] | 24.9 nM | 358 nM |
| CN=S(C)(=O)c1ccc(OC[C@@H]2CN(CCc3cccc(C#N)c3)C[C@H]2C)cc1 (single isomer, unassigned) [Compound 170, 3-{2-[(3S,4S)-3-methyl-4-({4-[(R or S)-methyl(methylimi-no)oxo-λ^6-sulfanyl]phenoxy}methyl)pyrrolidin-1-yl]ethyl}benzonitrile] | 76 nM | 37.5 nM |
| CN=S(C)(=O)c1ccc(OC[C@@H]2CN(CCc3cccc(C#N)c3)C[C@H]2C)cc1 (single isomer, unassigned) [Compound 171, 3-{2-[(3S,4S)-3-methyl-4-({4-[(S or R)-methyl(methylimi-no)oxo-λ^6-sulfanyl]phenoxy}methyl)pyrrolidin-1-yl]ethyl}benzonitrile] | 146 nM | 212 nM |
| C[C@H]1CN(CCc2cccc(Cl)c2)C[C@@H]1COc1ccc(S(=O)(=O)CCCS(C)(=O)=O)cc1 (single isomer, unassigned) [Compound 176, (3R,4R or 3S,4S)-1-[2-(3-chlorophenyl)eth-yl]-3-{[4-(3-methanesulfonylpro-panesulfonyl)phe-noxy]methyl}-4-methylpyrrolidine] | < 47.2 nM | 63 nM |
| C[C@@H]1CN(CCc2cccc(Cl)c2)C[C@H]1COc1ccc(S(=O)(=O)CCCS(C)(=O)=O)cc1 (single isomer, unassigned) [Compound 177, (3S,4S or 3R,4R)-1-[2-(3-chlorophenyl)eth-yl]-3-{[4-(3-methanesulfonylpro-panesulfonyl)phe-noxy]methyl}-4-methylpyrrolidine] | 1830 nM | 2860 nM |
| CN=S(C)(=O)c1ccc(OC[C@@H]2CN(CCc3cc(Cl)cc(C#N)c3)CCN2)cc1 (single isomer, unassigned) [Compound 187, 3-chloro-5-{2-[(3S)-3-({4-[(S or R)-methyl(methyl-imino)oxo-λ^6-sulfanyl]pheno-xy}methyl)pipera-zin-1-yl]ethyl}benzo-nitrile] | 436 nM | 198 nM |
| CN=S(C)(=O)c1ccc(OC[C@@H]2CN(CCc3cc(Cl)cc(C#N)c3)CCN2)cc1 (single isomer, unassigned) [Compound 188, 3-chloro-5-{2-[(3S)-3-({4-[(R or S)-methyl(methyl-imino)oxo-λ^6-sulfanyl]pheno-xy}methyl)piper-azin-1-yl]ethyl}benzo-nitrile] | 303 nM | 511 nM |
| CC1CC(COc2ccc(S(C)(=O)=O)cc2)CN1CCc1cc(Cl)cc(C#N)c1 (single isomer, unassigned) [Compound 199, rac-cis or trans-3-chloro-5-{2-[4-[(4-methanesulfonylphenoxy)methyl]-2-methylpyrrolidin-1-yl]ethyl}benzonitrile] | 2440 nM | 817 nM |
| CC1CC(COc2ccc(S(C)(=O)=O)cc2)CN1CCc1cc(Cl)cc(C#N)c1 (single isomer, unassigned) [Compound 200, 3-chloro-5-(2-((2S,4R or 2R,4S or 2R,4R or 2S,4S)-2-methyl-4-((4-(methylsulfonyl)phenoxy)methyl)pyrrolidin-1-yl)ethyl)benzonitrile] | 1990 nM | 836 nM |
